Data as given in publication PMC9530166, “Allosteric regulation of glycogen breakdown by the second messenger cyclic di-GMP” (Nature Communications, 2022).
“Also recorded” adds a separate entry of the source. Blank lines part the entries; values can stand above or below the compound they belong to.

What was measured:
GlgX = GlgX (Streptomyces venezuelae, UniProt F2RAW5); test: Fluorescence polarization (FP) binding, wild-type GlgX; settings: FP, 1 nM fluoresceinated ligand, 25 °C
Source text: (§1) Fig. 5 Structure of the S. venezuelae GlgX-c-di-GMP complex. a Ribbon diagram of the S. venezuelae GlgX-c-di-GMP complex with one GlgX subunit colored cyan and the other salmon. Shown as sticks are the c-di-GMP molecules bound at each end of the antiparallel dimer. […] There was clear density for each c-di-GMP molecule. b Close up of the GlgX-c-di-GMP binding interaction. Key residues mediating contacts to the c-di-GMP are shown as sticks and labeled. Hydrogen bonds from GlgX residues that specify binding to the guanine are indicated by yellow dashed lines. c Fluorescence polarization (FP) binding isotherm showing interaction of GlgX, GlgXE47A-R49A and GlgXR438A-R579A for F-c-di-GMP in red, green and blue respectively. Also shown is the binding isotherm for GlgX binding to F-c-di-AMP in black. […] The y-axis and x-axis are millipolarization (mP) units and GlgX concentration (μM), respectively. Shown are representative binding curves for each. The experiments were performed in technical triplicates and the error between measurements reported. Error bars represent SD of the measurements. Source data are provided in the Source data file.
Thus, we used this F-tagged c-di-GMP in fluorescence polarization (FP) studies to quantify the interaction between GlgX and c-di-GMP. […] To ensure that the presence of the fluorescent tag was not impacting the GlgX interaction with c-di-GMP we used microscale thermophoresis (MST) to quantify c-di-GMP binding to GlgX. […] But to further probe the structural model we created GlgXE47A-R49A and GlgXR438A-R579A mutants and performed FP studies with these proteins.
To measure c-di-GMP binding to GlgX and GlgX mutants, 2′-O-(6-[Fluoresceinyl]aminohexylcarbamoyl)-cyclic diguanosine monophosphate (2′-Fluo-AHC-c-di-GMP) (BioLog), was used as a fluoresceinated reporter ligand. This molecule is conjugated via a nine atom spacer to one of the c-di-GMP 2′ hydroxyl groups. […] 2′-O-(6-[Fluoresceinyl]aminohexylcarbamoyl)-cyclic diadenosine monophosphate (2′-Fluo-AHC-c-di-AMP) (BioLog) was also used in binding studies to assess specificity of GlgX for c-di-GMP. […]

GlgXR438A-R579A = test: Fluorescence polarization binding, GlgXR438A-R579A; set-up: species or system Streptomyces venezuelae
Source text: as §1, with “Error bars represent SD of the measurements. Source data are provided in the Source data file.” left out
(§2) Thus, we used this F-tagged c-di-GMP in fluorescence polarization (FP) studies to quantify the interaction between GlgX and c-di-GMP. […] To ensure that the presence of the fluorescent tag was not impacting the GlgX interaction with c-di-GMP we used microscale thermophoresis (MST) to quantify c-di-GMP binding to GlgX. […]

GlgXE47A-R49A = test: Fluorescence polarization binding, GlgXE47A-R49A; set-up: species or system Streptomyces venezuelae
Source text: as §1, with “Error bars represent SD of the measurements. Source data are provided in the Source data file.” left out
as §2

His6-GlgX = test: DRaCALA with [32P]-c-di-GMP, wild-type GlgX; assay type: binding, Streptomyces venezuelae; settings: excess (100 µM) unlabeled nucleotide
Protocol: (§3) Fig. 1 GlgX binds c-di-GMP. a Quantification of c-di-GMP in S. venezuelae cell extracts using LC-MS/MS. Cells were harvested during late vegetative growth (8–10 h), transition to sporulation (12–16 h), and sporulation (18–20 h). Data are presented as the mean of biological replicates ±SD (n = 3). […] Source data are provided in the Source data file. c [^32P]-c-di-GMP binds to GlgX in DRaCALA assay indicated by dark spots in the center of the nitrocellulose membrane. For competition, excess (100 µM) of unlabeled c-di-GMP, c-di-AMP, or GTP was added to the reaction containing [^32P]-c-di-GMP and GlgX.
To determine if the interaction between Vnz29170 (herein called GlgX) and c-di-GMP is direct, we purified an N-terminally His6-tagged GlgX protein and performed nano differential scanning fluorimetry (nanoDSF) thermal shift assays. […] In addition, we used differential radial capillary action of ligand assays (DRaCALA), which allows visualization of protein-bound radiolabeled ligand as a central spot after the application of the protein-ligand mix onto nitrocellulose. Using DRaCALA we confirmed that GlgX from S. venezuelae binds ^32P-labeled c-di-GMP.
For DRaCALA assays, purified His6-GlgX (15 μg) was mixed with 0.5 μl undiluted [^32P]-c-di-GMP (42 nM) (Hartmann Analytic GmbH, Braunschweig) in binding buffer (25 mM Tris pH 8; 150 mM NaCl; 2.5% (v/v) glycerol; 5 mM MgCl2) and the reaction was incubated at rt for 5 min. For competition assays, 100 μM nonlabeled nucleotides were added to the samples and incubated at rt for 5 min prior to the addition of [^32P]-c-di-GMP. Reactions (10 μl) were spotted on the same nitrocellulose membrane (Roth), air dried for 10 min and analyzed via phosphorimaging.

His6-GlgX (Vnz29170) = test: nanoDSF label-free thermal shift assay, wild-type GlgX; assay type: binding, Streptomyces venezuelae; settings: 10 µM GlgX, 1 mM c-di-AMP
Protocol: as §3
To determine if the interaction between Vnz29170 (herein called GlgX) and c-di-GMP is direct, we purified an N-terminally His6-tagged GlgX protein and performed nano differential scanning fluorimetry (nanoDSF) thermal shift assays. […]
For label-free thermal shift assay experiments, 10 μM purified protein in 25 mM Tris pH 8, 150 mM NaCl, 2.5% (v/v) glycerol, and 5 mM MgCl2 was incubated without or with (1 mM) of nonlabeled c-di-GMP or c-di-AMP, respectively, at rt for 10 min. Reactions were subsequently analyzed in a Tycho NT.6 (NanoTemper Technologies) device with a 30 K/min thermal ramp and the internal fluorescence at 330 and 350 nm was recorded. […]

[1] = molecular target: S. venezuelae glycogen debranching enzyme GlgX (Vnz29170) (S. venezuelae); test: crystal structure; GlgX with 3 mM c-di-GMP, 3.34 Å; 40% ethylene glycol, 0.1 M sodium acetate pH 4.6; two GlgX dimers in the asymmetric unit

GlgX, sequence (F2RAW5 entry or part of it): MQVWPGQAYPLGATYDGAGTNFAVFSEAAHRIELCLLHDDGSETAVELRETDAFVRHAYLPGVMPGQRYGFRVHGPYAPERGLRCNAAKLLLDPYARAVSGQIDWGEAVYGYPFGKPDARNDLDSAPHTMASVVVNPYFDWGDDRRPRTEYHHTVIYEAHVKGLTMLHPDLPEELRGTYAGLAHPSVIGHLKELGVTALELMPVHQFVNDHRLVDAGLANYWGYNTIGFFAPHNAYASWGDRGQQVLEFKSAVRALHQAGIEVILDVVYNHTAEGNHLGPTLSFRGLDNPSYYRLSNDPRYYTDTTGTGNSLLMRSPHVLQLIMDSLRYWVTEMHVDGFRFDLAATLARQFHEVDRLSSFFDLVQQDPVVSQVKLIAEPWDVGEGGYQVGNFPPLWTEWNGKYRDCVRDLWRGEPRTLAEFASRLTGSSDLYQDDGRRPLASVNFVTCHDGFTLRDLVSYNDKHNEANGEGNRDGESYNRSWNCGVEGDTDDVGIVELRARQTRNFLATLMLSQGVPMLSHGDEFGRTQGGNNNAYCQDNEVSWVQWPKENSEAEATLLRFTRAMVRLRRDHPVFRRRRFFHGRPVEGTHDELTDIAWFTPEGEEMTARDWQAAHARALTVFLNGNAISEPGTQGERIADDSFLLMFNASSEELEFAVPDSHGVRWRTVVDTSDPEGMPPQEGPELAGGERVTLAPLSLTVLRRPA
GlgXE47A-R49A, sequence (as listed by the source, stated change not applied): as the sequence (F2RAW5 entry or part of it) above, with E47A, R49A counted along it
GlgXR438A-R579A, sequence (as listed by the source, stated change not applied): as the sequence (F2RAW5 entry or part of it) above, with R438A, R579A counted along it

Compound: 2′-O-(6-[Fluoresceinyl]aminohexylcarbamoyl)-cyclic diadenosine monophosphate [F-c-di-AMP]
- binding to WT GlgX in FP (GlgX): did not bind; also recorded: essentially no binding

Compound: 2′-O-(6-[Fluoresceinyl]aminohexylcarbamoyl)-cyclic diguanosine monophosphate [F-c-di-GMP]
- binding to mutant in FP (GlgXR438A-R579A): nonsaturable binding
- binding to mutant in FP (GlgXE47A-R49A): nonsaturable binding
- Kd (GlgX; WT GlgX titrated, pH 7.5, read-out: Kd): 8.2 ± 1 µM

Compound: Nc1nc2c(ncn2[C@@H]2O[C@H](COP(=O)(O)OP(=O)(O)OP(=O)(O)O)[C@@H](O)[C@H]2O)c(=O)[nH]1 [GTP]
- competition with 32P-c-di-GMP for binding to GlgX (His6-GlgX): not c-di-AMP or GTP competed

Compound: Nc1ncnc2c1ncn2[C@@H]1O[C@@H]2COP(=O)(O)O[C@H]3[C@@H](O)[C@H](n4cnc5c(N)ncnc54)O[C@@H]3COP(=O)(O)O[C@H]2[C@H]1O [c-di-AMP]
- effect of ligand on melting point of His6-GlgX (His6-GlgX (Vnz29170)): no effect
- competition with 32P-c-di-GMP for binding to GlgX (His6-GlgX): not c-di-AMP or GTP competed

- stoichiometry N [1]: 2
Compound: S. venezuelae glycogen debranching enzyme GlgX (Vnz29170)
